Measurements: the NIST ThermoML archive (doi:10.1016/j.jct.2017.07.011)

Test: xn = mol fraction of the nth substance listed
Conditions: 100 kPa, Liquid, Vibrating tube method

CCCC(C)O (stereo unspecified) [pentan-2-ol] + O
mass density [kg/m3]
Conditions | x1 = 0.00105 | x1 = 0.0021 | x1 = 0.00413 | x1 = 0.00599 | x1 = 0.00677 | x1 = 0.00857 | x1 = 1
273.65 K | 999.095 | 998.354 | 997.02 | 995.922 | 995.484 | 994.604 | 824
274.15 K | 999.119 | 998.377 | 997.038 | 995.939 | 995.499 | 994.61 | 823.6
274.65 K | 999.148 | 998.4 | 997.057 | 995.957 | 995.51 | 994.622 | 823.2
275.15 K | 999.16 | 998.416 | 997.073 | 995.965 | 995.523 | 994.625 | 822.8
275.65 K | 999.177 | 998.43 | 997.08 | 995.972 | 995.524 | 994.627 | 822.5
276.15 K | 999.187 | 998.44 | 997.09 | 995.972 | 995.527 | 994.622 | 822.1
276.65 K | 999.193 | 998.445 | 997.092 | 995.974 | 995.524 | 994.619 | 821.7
277.15 K | 999.185 | 998.444 | 997.082 | 995.964 | 995.512 | 994.604 | 821.3
277.65 K | 999.19 | 998.439 | 997.076 | 995.952 | 995.498 | 994.583 | 820.9
278.15 K | 999.187 | 998.426 | 997.066 | 995.938 | 995.484 | 994.566 | 820.6
278.65 K | 999.177 | 998.416 | 997.053 | 995.923 | 995.466 | 994.542 | 820.2
279.15 K | 999.163 | 998.401 | 997.037 | 995.898 | 995.439 | 994.519 | 819.8
279.65 K | 999.133 | 998.376 | 997.002 | 995.867 | 995.403 | 994.471 | 819.4
280.15 K | 999.115 | 998.36 | 996.978 | 995.84 | 995.375 | 994.439 | 819.1
280.65 K | 999.09 | 998.332 | 996.951 | 995.806 | 995.342 | 994.408 | 818.7
281.15 K | 999.058 | 998.301 | 996.915 | 995.769 | 995.301 | 994.365 | 818.3
281.65 K | 999.025 | 998.267 | 996.878 | 995.731 | 995.261 | 994.318 | 817.9
282.15 K | 998.992 | 998.234 | 996.841 | 995.688 | 995.214 | 994.273 | 817.5
